# Where a SMILES comes first, the peptide text is derived from it. Bridges are numbered along the chain shown (N, C = ends). Where no end group is shown, it is not given here. The star is where a group is joined. Biotin = O=C1N[C@H]2[C@H](CS[C@H]2CCCCC(=O)*)N1; AEEA = NCCOCCOCC(=O)O
# B1: P258 (peptide)
# chain: ASACPPH
# modifications: also: biotin-AEEA attached, end not given here
# B2: USPIO-P258 (peptide)
# chain: ASACPPH-NH2
# modifications: also: AEEA attached, end not given here, conjugated to PEGylated USPIO
# B3: P725 (peptide)
# chain: CKIMKSMPC
# modifications: disulfide 1-9 (inferred); also: biotin-AEEA attached, end not given here
# B4: P725 (peptide)
# chain: CKIMKSMPC
# modifications: disulfide 1-9 (inferred); also: AEEA attached, end not given here
# Key:
# [1] = system: IL-7Rα expressed by ADC-stimulated Jurkat cells; assay: Binding of peptides to ADC-stimulated Jurkat cells and co-localization with IL-7Rα by immunofluorescence; type: cell-based, human
# Procedure: The cells were stimulated with 0.4 μM of 5-Aza-2’-deoxycytidine (ADC, Sigma-Aldrich). The stimulated cells were immobilized on poly-L-lysine (Sigma-Aldrich) coated coverslips and fixed in a solution of 4 % formaldehyde (Sigma-Aldrich). […] Biotinylated peptides were detected with a goat anti-biotin antibody followed by fluorescein-conjugated rabbit anti-goat antibody (both from Vector Labconsult). Anti-IL-7Rα antibody was detected with Texas Red horse anti-mouse antibody (Vector Labconsult). Control samples consisted of ADC-stimulated or non-stimulated (NS) Jurkat cells incubated with low-affinity peptide binders (e.g., P255, P259), a mouse IgG isotype control, or with secondary antibodies after excluding the primary antibodies. […] The protocol is additionally described in Additional file 1: Methods.
# to the target was detected as described above.
# (Sigma-Aldrich) diluted in PBS.
# (Vector Labconsult) diluted in phosphate buffer. They were then co-incubated (1h, room
# camera (Leica Microsystems, Groot Bijgaarden, Belgium).
# [2] = system: lysosome content of Jurkat cells; assay: Lysosome content of Jurkat cells (Lysotracker Red DND-99); type: cell-based
# [3] = system: STAT5 activation in ADC-stimulated Jurkat cells; assay: Phospho-STAT5 detection on ADC-stimulated Jurkat cells by immunofluorescence; type: cell-based, human
# Procedure: The solutions were replaced every day after culture tube centrifugation and supernatant removal.
# The signal intensity (SI) was measured on microphotographs corresponding to three to six different microscopic fields using the ImageJ software (National Institutes of Health, USA), and the relative ratio of fluorescent labeling (RRFL) was then calculated using the subsequent equation: RRFL=SIsample/Numberofcells/SInegativecontrols/Numberofcells×100 […]
# stained with 0.05% 3,3'-diaminobenzidine (DAB) completed with 0.02% H2O2 in PBS. Finally, they were counterstained with Hemalun and Luxol fast blue and mounted in a permanent […]
# To validate the binding of biotinylated P258 to human knee sections, the endogenous biotin was first blocked with a blocking kit (Invitrogen). The histologic sections were then incubated (4°C, overnight) with 1 µM of P258, followed by an incubation (1h, room […]
# goat antibody made in horse (Vector Labconsult). The staining and counterstaining were performed as described above for anti-IL-7Rα monoclonal antibody.
# 2.5. Phospho-STAT5 detection on Jurkat cells and modulation by peptide P725 Jurkat cells were cultured and stimulated with ADC as described above. The experiment was performed in triplicate on stimulated and non -stimulated cells that were distributed in several culture tubes at a concentration of 10^6 cells/mL and treated (37°C in a humidified 5% CO2 incubator) with different compounds diluted in the culture medium as follows: (A) cells […]
# for 30 min with 1 mM of P725; (C) cells pre-incubated for 30 min with 10 µg/mL of mo use […]
# In the case of samples B and C, the […]
# replaced every day after centrifuging the culture tubes and removing the precedent solutions by […]
# At the end of the treatment period, the cells were immobilized on poly -L-lysine coated coverslips and fixed with 4% formaldehyde as described above. After three times rinsing with PBS, the cells were treated with 100% methanol for 10 min at -20°C. […] The primary antibodies bound to the cells were then detected by a co- […]
# IL-7Rα = target: T1, IL-7Rα (Homo sapiens, UniProt P16871); assay: ELISA of biotinylated peptides, K*d for IL-7Rα; type: binding; settings: synthesized peptides, IL-7Rα vs. FN
# T1 construct: screened against the extracellular domain of IL-7Rα (E^21–D^239); Fc (chimera partner); purchased R&D Systems
# T1 sequence (P16871 21-239): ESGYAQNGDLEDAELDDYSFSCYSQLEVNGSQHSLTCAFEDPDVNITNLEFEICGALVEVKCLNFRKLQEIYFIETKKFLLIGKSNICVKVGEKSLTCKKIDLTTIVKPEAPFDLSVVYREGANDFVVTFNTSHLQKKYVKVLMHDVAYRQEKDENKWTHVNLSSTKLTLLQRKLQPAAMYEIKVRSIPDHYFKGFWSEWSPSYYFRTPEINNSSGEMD
# Procedure: (§1) Serial dilutions of biotinylated peptides were incubated with IL-7Rα or FN immobilized on ELISA plates as described above and blocked with protein-free blocking buffer (PFBB) (Perbioscience, Erembodegem, Belgium). Peptides bound to the target were detected with a goat anti-biotin antibody, followed by a peroxidase-conjugated anti-goat antibody made in horse (both from Vector Labconsult, Brussels, Belgium). […] The protocol is largely described in Additional file 1: Methods. […]
# (§2) screening of the phage clones.
# (§3) After 30 min of incubation, the […]
# (§4) antibody as described above.
# (§5) 2. Characterization of the selected IL-7Rα-binding peptides […]
# (§6) by an incubation of 2h at 37°C. The wells were subsequently incubated (1h, room temperature) […]
# (§7) 20 and 0.5% BSA (1h, room temperature). After each incubation step, the wells were washed with PBST-0.05% using a microplate washer. The staining reaction was developed with 0.1 […]
# (§8) For this purpose, a range of IL-
# FN = target: T2, FN (Homo sapiens, UniProt P02751); assay: ELISA of biotinylated peptides, K*d for FN; type: binding; settings: Fig. 1a, 2 h at 37 °C, read-out: Kd: FN, synthesized peptides
# T2 construct: fragment 3 of recombinant human FN-1 (R&D Systems); purchased R&D Systems
# Procedure: as §1, §2, §3, §4, §5, §6, §7, §8
# low-affinity IL-7R = settings: read-out: Kd of IL-7 against low-affinity IL-7R, reported previously; cited from earlier work
# Excerpt: (§9) In addition, two antibodies were used to detect IL-7, which means that additional rinsing steps may contribute to extensive prot ...
# high-affinity IL-7R = settings: read-out: Kd of IL-7 against high-affinity IL-7R, reported previously; cited from earlier work
# Excerpt: as §9
# [4] = target: IL-7Rα (high-affinity receptor) (Homo sapiens) (UniProt P16871); settings: cited from earlier work
# [5] = system: IL-7Rα expression of Jurkat cells; assay: IL-7Rα expression of ADC vs. NS Jurkat cells; type: cell-based; settings: 0.4 μM ADC, 4 days
# Procedure: Jurkat cells were cultured in RPMI-1640 culture medium supplemented with 10 % newborn calf serum heat-inactivated and 1 % antibiotic-antimycotic (all from Invitrogen). The cells were stimulated with 0.4 μM of 5-Aza-2’-deoxycytidine (ADC, Sigma-Aldrich) [26]. The stimulated cells were immobilized on poly-L-lysine (Sigma-Aldrich) coated coverslips and fixed in a solution of 4 % formaldehyde (Sigma-Aldrich). […] Biotinylated peptides were detected with a goat anti-biotin antibody followed by fluorescein-conjugated rabbit anti-goat antibody (both from Vector Labconsult). Anti-IL-7Rα antibody was detected with Texas Red horse anti-mouse antibody (Vector Labconsult). […] The coverslips were mounted on slides with Vectashield mounting medium for fluorescence with 4',6-diamidino-2-phenylindole (DAPI) (Vector Labconsult) and observed on a DM2000 Leica microscope equipped with a DFC 425C camera (Leica Microsystems, Groot Bijgaarden, Belgium).
# USPIO-P258 was co-localized with IL-7Rα expressed by Jurkat cells using an immunofluorescence protocol. […] The coverslips were finally mounted on slides with a mounting medium for fluorescence (Vector Labconsult). The RRFL was evaluated as described above.
# IL-7Rα 21-239 [6] = target: T3, IL-7Rα 21-239 (Homo sapiens, UniProt P16871); assay: ELISA
# T3 chain: T1 sequence (P16871 21-239)
# IL-7Rα 21-239 [7] = target: T3, IL-7Rα 21-239; assay: competition ELISA vs IL-7
# T2 sequence (P02751 607-1265 limits assumed): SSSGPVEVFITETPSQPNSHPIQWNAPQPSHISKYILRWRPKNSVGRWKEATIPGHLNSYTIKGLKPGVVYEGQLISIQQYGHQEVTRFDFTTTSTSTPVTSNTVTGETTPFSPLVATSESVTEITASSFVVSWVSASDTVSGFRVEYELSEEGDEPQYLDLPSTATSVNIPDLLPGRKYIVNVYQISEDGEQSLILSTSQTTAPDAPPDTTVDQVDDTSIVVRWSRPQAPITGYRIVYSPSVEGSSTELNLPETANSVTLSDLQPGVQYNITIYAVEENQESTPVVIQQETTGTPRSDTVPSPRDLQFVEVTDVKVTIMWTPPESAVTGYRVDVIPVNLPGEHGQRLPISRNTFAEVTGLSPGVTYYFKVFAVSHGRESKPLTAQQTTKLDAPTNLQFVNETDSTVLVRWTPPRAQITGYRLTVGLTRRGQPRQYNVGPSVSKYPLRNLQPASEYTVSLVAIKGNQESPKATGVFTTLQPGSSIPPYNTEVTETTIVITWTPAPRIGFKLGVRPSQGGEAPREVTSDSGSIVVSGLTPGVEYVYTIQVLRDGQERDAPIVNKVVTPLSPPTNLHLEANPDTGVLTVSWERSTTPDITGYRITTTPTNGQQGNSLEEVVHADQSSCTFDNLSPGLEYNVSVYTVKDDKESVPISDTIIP
molecule,measurement,setting,value
CC[C@H](C)[C@@H]1NC(=O)[C@H](CCCCN)NC(=O)[C@@H](NC(=O)COCCOCCNC(=O)CCCC[C@@H]2SC[C@@H]3NC(=O)N[C@@H]32)CSSC[C@@H](C(N)=O)NC(=O)[C@@H]2CCCN2C(=O)[C@H](CCSC)NC(=O)[C@H](CO)NC(=O)[C@H](CCCCN)NC(=O)[C@H](CCSC)NC1=O [Peptide P725] ({Biotin-AEEA}-CKIMKSMPC-NH2; disulfide 1-9; C-terminus assumed),Co-localization with IL-7Rα,[1]; biotinylated P258 (0.04 μM) or P725 (5 μM),co-localizes with peptides
same,Decrease of anti-IL-7Rα monoclonal antibody staining intensity,"[1]; biotinylated P725 (5 μM), overnight 4 °C",57%
same,Lysosome content after treatment,"[2]; with IL-7, P725 or anti-IL-7Rα antibody, p < 0.05",significantly diminished
same,Inhibition of IL-7-induced STAT5 activation,"[3]; P725 1 mM or antibody 10 µg/mL pre-incubated 30 min, then IL-7 6 ng/mL 48 h, ADC-stimulated Jurkat cells",82%
same,Prevention of IL-7 binding and STAT-5 activation,"[3]; P725 1 mM or antibody 10 µg/mL pre-incubated 30 min, then IL-7 6 ng/mL 48 h, p < 0.01",prevented IL-7 binding and STAT-5 activation
C[C@@H]1NC(=O)[C@@H](NC(=O)COCCOCCNC(=O)CCCC[C@@H]2SC[C@@H]3NC(=O)N[C@@H]32)CSSC[C@@H](C(N)=O)NC(=O)[C@H](Cc2c[nH]cn2)NC(=O)[C@@H]2CCCN2C(=O)[C@@H]2CCCN2C(=O)[C@H](CS)NC(=O)[C@H](C)NC(=O)[C@H](CO)NC1=O [Peptide P726] ({Biotin-AEEA}-CASACPPHC-NH2; disulfide 1-9; C-terminus assumed),"Relative affinity for IL-7Rα and FN, peptides",IL-7Rα,highest specific binding to IL-7Rα
ASACPPH-NH2 [Peptide P258],Kd,FN,1800 nM
IL-7: human recombinant IL-7 (R&D Systems; eBioscience),Kd,low-affinity IL-7R,10 nM
same,Kd,high-affinity IL-7R,0.2 nM
same,Increase in lysosome content,[2]; IL-7 vs. ADC-treated controls,398%
same,Increase in phospho-STAT-5,"[3]; IL-7 6 ng/mL, 48 h, vs. ADC-treated controls",424%
C[C@@H]1NC(=O)[C@@H]2CCCN2C(=O)[C@H](CCCNC(=N)N)NC(=O)[C@H](CCC(N)=O)NC(=O)[C@@H]2CCCN2C(=O)[C@H](Cc2c[nH]cn2)NC(=O)[C@@H]2CCCN2C(=O)[C@@H](NC(=O)COCCOCCNC(=O)CCCC[C@@H]2SC[C@@H]3NC(=O)N[C@@H]32)CSSC[C@@H](C(N)=O)NC1=O [Peptide P722] ({Biotin-AEEA}-CPHPQRPAC-NH2; disulfide 1-9; C-terminus assumed),"Relative affinity for IL-7Rα and FN, peptides",IL-7Rα,"lost its affinity against IL-7Rα, displaying equivalent binding to FN"
IL-7 (from UniProt P13232),Kd,[4],0.2 nM
"Nc1ncn([C@H]2C[C@H](O)[C@@H](CO)O2)c(=O)n1 [ADC, 5-Aza-2’-deoxycytidine]",IL-7Rα expression in ADC cells vs. NS cells (fold),[5],about six
B1,Kd,IL-7Rα 21-239 [6],600 nM
B2,Kd,IL-7Rα 21-239 [6],4900 nM
same,IC50,IL-7Rα 21-239 [7],6600 nM
B3,Kd,IL-7Rα 21-239 [6],1100 nM
B4,IC50,IL-7Rα 21-239 [7],16400 nM
